Results: paper PMC10272180, “Ancient medicinal plant rosemary contains a highly efficacious and isoform-selective KCNQ potassium channel opener” (Communications Biology, 2023)

Legend:
[1] = molecular target: T1, KCNQ3* coexpressed with Danio rerio VSP (DrVSP) (Homo sapiens, UniProt O43525, A315T); test: TEVC of KCNQ3* coexpressed with DrVSP, PIP2 depletion at +120 mV; assay type: cell-based; conditions: 5 µM
T1 construct: expressed in transfected cells; host or cells: Xenopus laevis oocytes
Description: Under baseline conditions, binding of the […], lipid-derived signaling molecule phosphatidylinositol 4,5-bisphosphate (PIP2) to KCNQ3 (and other KCNQ isoforms) is required for efficient coupling of the voltage sensor to pore opening and thus voltage-dependent gating[22],[23]. […] Another strategy for PIP2 reduction is to express a voltage-sensitive phosphatase (VSP) that reduces PIP2 levels upon membrane depolarization. […]
(§1) We performed TEVC at room temperature using an OC-725C amplifier (Warner Instruments, Hamden, CT, USA) and pClamp10 software (Molecular Devices, Sunnyvale, CA, USA) 2–4 days after cRNA injection. […] We recorded currents in response to voltage pulses between −120 mV and +40 mV at 10 mV intervals from a holding potential of −80 mV, to yield current-voltage relationships and examine activation kinetics. We analyzed data using Clampfit (Molecular Devices) and Graphpad Prism software (GraphPad, San Diego, CA, USA), stating values as mean ± SEM. […]

KCNQ3*-L198F = KCNQ3*-L198F (Homo sapiens, UniProt O43525, A315T/L198F); test: TEVC of mutant KCNQ3*-L198F in oocytes; assay type: cell-based
Description: (§2) We generated cRNA transcripts encoding human KCNQ1, 2, 3, and 5 (wild-type and mutant) by in vitro transcription using the mMessage mMachine kit (Thermo Fisher Scientific, Waltham, MA, USA) according to manufacturer’s instructions, after vector linearization, from cDNA sub-cloned into expression vectors (pTLNx and pXOOM) incorporating Xenopus laevis β-globin 5’ and 3’ UTRs flanking the coding region to enhance translation and cRNA stability. Mutant KCNQ cDNAs were generated by Genscript (Piscataway, NJ, USA) and cRNAs made as above. We injected defolliculated stage V and VI Xenopus laevis oocytes (Xenoocyte, Dexter, MI, USA) with KCNQ cRNAs (2–10 ng) and incubated the oocytes at 16 °C in ND96 oocyte storage solution containing penicillin and streptomycin, with daily washing, for 2–4 days prior to two-electrode voltage-clamp (TEVC) recording.
We performed TEVC at room temperature using an OC-725C amplifier (Warner Instruments, Hamden, CT, USA) and pClamp10 software (Molecular Devices, Sunnyvale, CA, USA) 2–4 days after cRNA injection. We placed oocytes in a small-volume oocyte bath (Warner) and viewed them with a dissection microscope for cellular electrophysiology. We sourced chemicals from Sigma-Aldrich (St. Louis, MO, USA) and Combi-Blocks (San Diego, CA, USA). We studied effects of Salvia rosmarinus extracts and of compounds, solubilized directly in bath solution (in mM): 96 NaCl, 4 KCl, 1 MgCl2, 1 CaCl2, 10 HEPES (pH 7.6). We introduced extracts or compounds into the oocyte recording bath by gravity perfusion at a constant flow of 1 ml per minute for 3 min prior to recording. Pipettes were of 1-2 MΩ resistance when filled with 3 M KCl. […] We analyzed data using Clampfit (Molecular Devices) and Graphpad Prism software (GraphPad, San Diego, CA, USA), stating values as mean ± SEM. We plotted raw or normalized tail currents versus prepulse voltage and fitted with a single Boltzmann function:1 g=(A1−A2)/1+exp[V1/2−V/Vs]y+A2 where g is the normalized tail conductance, A1 is the initial value at -∞, A2 is the final value at +∞, V1/2 is the half-maximal voltage of activation and Vs the slope factor. We fitted activation and deactivation kinetics with single exponential functions.

KCNQ3*-R243A = KCNQ3*-R243A (Homo sapiens, UniProt O43525, A315T/R243A); test: TEVC of mutant KCNQ3*-R243A in oocytes; assay type: cell-based; conditions: 100 µM
Description: as §2, §1

[2] = cited from earlier work

For `CC(C)c1cc2c(c(O)c1O)[C@@]1(C(=O)O)CCCC(C)(C)[C@@H]1CC2` [Carnosic acid, carnosic acid], the “effect on DrVSP-induced KCNQ3* current decay” value [1] was “reduced or prevented”, the “V0.5 Normalized tail current” value (KCNQ3*-L198F; 0.1 µM) was -58.22 ± 0.59 mV and the “V0.5 Normalized tail current” value (KCNQ3*-L198F; 1 µM) was -62.90 ± 0.79 mV. The “V0.5 Normalized tail current” value (KCNQ3*-L198F; 3 µM) was -73.56 ± 0.79 mV, the “V0.5 Normalized tail current” value (KCNQ3*-L198F; 10 µM) was -91.66 ± 1.99 mV and the “V0.5 Normalized tail current” value (KCNQ3*-L198F; 30 µM) was -116.6 ± 3.44 mV. The EC50 (KCNQ3*-L198F; EC50 EM) was 1.15 ± 0.12 µM, the EC50 (KCNQ3*-L198F; EC50 V0.5 Activation) was 6.28 ± 0.08 µM and the “carnosic acid efficacy and potency compared with KCNQ3*” value (KCNQ3*-L198F; dose-response) was “very similarly”. For the same molecule, the Slope (KCNQ3*-R243A) was 9.48 ± 0.54 mV, the “V0.5 Normalized tail current” value (KCNQ3*-R243A) was -64.93 ± 0.61 mV and the “blood brain barrier crossing” value [2] was “crosses the blood brain barrier”.
